Earlier results in patent US8993576B2, “6-(1H-indol-4-yl)-4-(5-{[4-1-methylethyl)-1-piperazinyl]methyl}-1,3-oxazol-2-yl)-1H-indazole hemi succinate salt, polymorphs and pharmaceutical compositions thereof” (Glaxo Group Limited, priority 2010, dated 2015).
Read-outs that look alike come from different tables or passages of the source.

Columns and labels:
neutrophils [1] = details: treatment of neutrophils; Thelen et al. 1994
neutrophils [2] = system: neutrophils
neutrophils [3] = system: neutrophils; remark: listed apart in the source
CK2 protein kinase = CK2 protein kinase (Homo sapiens, UniProt P68400); details: read-out: IC50 on CK2 protein kinase
CK2 protein kinase, sequence (P68400 whole entry): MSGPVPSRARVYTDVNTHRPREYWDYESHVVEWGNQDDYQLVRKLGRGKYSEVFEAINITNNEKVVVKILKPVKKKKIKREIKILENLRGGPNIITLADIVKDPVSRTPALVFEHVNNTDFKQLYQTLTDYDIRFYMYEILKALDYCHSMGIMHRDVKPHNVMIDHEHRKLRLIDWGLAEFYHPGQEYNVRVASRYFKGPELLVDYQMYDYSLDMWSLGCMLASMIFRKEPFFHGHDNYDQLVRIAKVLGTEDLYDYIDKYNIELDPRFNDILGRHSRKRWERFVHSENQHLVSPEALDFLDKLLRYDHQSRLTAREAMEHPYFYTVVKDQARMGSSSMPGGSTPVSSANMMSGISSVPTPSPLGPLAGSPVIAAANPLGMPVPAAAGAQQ

| SMILES | IC50 (Class I PI3-kinases; each of the four Class I PI3-kinases, read-out: IC50 values against each of the various Class I PI3-kinases) [µM] | effect on fMLP-induced respiratory burst response (neutrophils [1]) | effect on neutrophil migration (neutrophils [2]) | effect on superoxide release (neutrophils [3]) | IC50 (Class I PI3-kinases; each of the Class I PI3-kinases, Fruman et al. 1998, read-out: IC50 values against each of these PI3-kinases) [µM] | IC50 (CK2 protein kinase) [µM] | inhibitory activity on phospholipases (phospholipases) |
| --- | --- | --- | --- | --- | --- | --- | --- |
| COC[C@H]1OC(=O)c2coc3c2[C@@]1(C)C1=C(C3=O)[C@@H]2CCC(=O)[C@@]2(C)C[C@H]1OC(C)=O [wortmannin] | 0.001 to 0.01 | prevents | block | block | – | – | – |
| O=c1cc(N2CCOCC2)oc2c(-c3ccccc3)cccc12 [LY294002] | – | – | block | block | 15 to 20 | 5 to 10 | some inhibitory activity |
